Legend:
MCF-7 C20 cells = assay: Propidium iodide exclusion cell death assay, Nod1-deficient MCF-7 C20 cells; format: cell-based, human; conditions: C20 cells, charcoal-treated serum, γTriDAP/CHX
Experimental: (§1) Cell viability assays. Propidium iodide exclusion assay: Cells were stimulated as indicated for 2 days. Subsequently, cells were harvested, washed twice in FACS buffer (PBS containing 1% FCS and 0.1% NaN3) and resuspended in propidium iodide (PI)-containing FACS buffer (4 ug/ml). The extent of cell death was analyzed with a FACSCalibur flow cytometer (Becton Dickinson, Mountain View, Calif.). DAPI staining: MCF-7 cells were plated in chamber slides, and stimulated for 2 days. Cells were washed with PBS and apoptotic nuclei were stained with 1 μg/ml DAPI (Sigma Chemical Co., St. Louis, Mo.). Cells were fixed in 4% paraformaldehyde and examined by fluorescence microscopy.
To further investigate the role of Nod1 in apoptosis, a variety of cell types were incubated with the Nod1 ligand, […] (γTriDAP), which specifically activates Nod1. The cell types tested included the parental MCF-7 cell line, the Nod1-deficient MCF-7C20 clone, and a cell line engineered to contain an additional human Nod1 allele (MCF-7Nod1) so that Nod1 was over-expressed. […] Cells were treated with γTriDAP in the presence or absence of cycloheximide (CHX) and cell death was then determined by propidium iodide staining and flow cytometry.

MCF-7 C20/Nod1 cells = assay: Propidium iodide exclusion apoptosis assay, estrogen/tamoxifen studies; format: cell-based, human
Excerpt: FIG. 12A-C illustrates that estrogen increases γTriDAP-induced apoptosis and tamoxifen inhibits γTriDAP-induced apoptosis in various MCF-7 tumor cell lines. FIG. 12A graphically illustrates the percent apoptosis in MCF-7 Blasto, MCF-7 C20 and MCF-7 C20/Nod1 cells cultured in increasing amounts or estrogen and either cycloheximide (CHX) or CHX plus γTriDAP (γTri). FIG. 12B graphically illustrates the percent apoptosis in MCF-7 Blasto, MCF-7 C20 and MCF-7 C20/Nod1 cells cultured in increasing amounts of tamoxifen and either cycloheximide (CHX) or CHX plus γTriDAP (γTri). For the estrogen studies, MCF-7 cells were cultured in charcoal-treated medium and stimulated with γTriDAP/CHX in the presence of increasing concentrations of estrogen (E2) and cell viability was measured by propidium iodide (PI) exclusion. For the tamoxifen studies, cells were treated with tamoxifen prior to addition of γTriDAP/CHX and cell viability measured by PI exclusion. […] Total protein extracts from MCF-7 Blasto, MCF-7 C20 and MCF-7 C20/Nod1 cells and from cells isolated from tumors were analyzed by immunoblotting using antibody against estrogen receptor (ERα), and ERK2 as loading control.
as §1
To determine whether the presence of estrogens modulates Nod1-induced apoptotic pathway, cells were cultured in medium containing charcoal-treated serum.

[1] = system: MCF-7 Blasto, MCF-7 C20, MCF-7 C20/Nod1 and MCF-7 RIP2ΔCARD cells; assay: Estrogen-induced proliferation (3H-thymidine) of MCF-7 cell lines; format: cell-based, human; conditions: for proliferative response to added estrogen: grown in the absence of estrogen
Experimental: (§2) FIG. 11A-D illustrate that the presence of Nod1 prevents tumor growth in SCID mice. FIG. 11A graphically illustrates the tumor volume in mice injected with MCF-7 C20 (left) and MCF-7 C20/Nod1 (right) cells as a function of time. The cells (3×10^6 cells/mouse) were injected into the flanks of female SCID mice. Tumor size was measured once a week and volume was determined according to the formula (PW2×L)/2. Each line represents tumor growth observed in one mouse (n=4). As illustrated, the tumor volume diminished in mice that received Nod1 expressing tumor cells (C20/Nod1). […] FIG. 11B graphically illustrates that implanting estrogen pellets into mice prior to injection of MCF-7 Blasto, MCF-7 C20 and MCF-7 C20/Nod1 cells (3×10^6 cells/mouse) increases tumor growth except when the tumor cells express Nod1 (the C20/Nod1 cells). […] The tumor volume was determined as described above. FIG. 11C graphically illustrates the tumor volume over time in mice injected with MCF-7 Blasto, MCF-7 C20 and MCF-7 RIP2ΔCARD cells. […] FIG. 11D graphically illustrates tumor cell growth as a function of estrogen concentration. […] MCF-7 Blasto, MCF-7 C20, MCF-7 C20/Nod1 and MCF-7 RIP2ΔCARD cells were exposed to increasing concentrations of 17β-estradiol, pulsed with ^3H-thimidine and cell growth was determined by liquid scintillation. Data are representative of at least 3 independent experiments.
Retroviral transfections. The various genes used in this study were cloned into pMSCV-Blasto, pBabe-Puro or pBabe-Neo retroviral vectors. MCF-7 cells were stably transfected using available procedures. Briefly, amphotropic 293 cells were transfected with retroviral vectors encoding selected Nod1, Nod2 and other proteins. Twenty-four hours post-transfection, cells were incubated at 32° C. overnight to produce viral particles. Target cells were infected the next day with virus-containing 293 cell supernatants containing recombinant retroviral particles. […] Cells were harvested on glass fiber filters and radioactivity measured by liquid scintillation. […]

[2] = system: MCF-7 Blasto, MCF-7 C20 and MCF-7 C20/Nod1 tumors; assay: Xenograft tumor growth in SCID mice with estrogen pellets; format: in vivo
Experimental: as §2
Human xenografts in nude mice. MCF-7 Blasto, MCF-7 C20 and MCF-7 C20/Nod1 cells were trypsinized, washed once with PBS and resuspended to a concentration of 1.5×10^7/ml. Two hundred microliters of each suspension were inoculated subcutaneously into the flank of athymic SCID/SCID or SCID/Nod (non-obese diabetic) female mice. Tumor size was assessed once a week. Tumor volume was calculated.
In most studies, tumor formation by MCF-7 cells requires supplementation of estrogens for tumorigenesis in nude mice, even when cells are inoculated at high concentration. To further examine the role of estrogen in tumorigenesis, all three cell lines were injected into mice along with estrogen pellets (FIG. 11B). […]

MCF-7 Nod1 cells = assay: Propidium iodide exclusion cell death assay, MCF-7 cells over-expressing Nod1; format: cell-based, human; conditions: for effect on γTriDAP-induced cell death: caspase inhibitor 50 uM, 30 min before γTriDAP/CHX for 48 h; for effect on γTriDAP-induced apoptosis: inhibitor 100 uM, 30 min prior to γTriDAP/CHX for 48 h
Experimental: as §1
(§3) To further investigate the role of Nod1 in apoptosis, a variety of cell types were incubated with the Nod1 ligand, […] (γTriDAP), which specifically activates Nod1. The cell types tested included the parental MCF-7 cell line, the Nod1-deficient MCF-7C20 clone, and a cell line engineered to contain an additional human Nod1 allele (MCF-7Nod1) so that Nod1 was over-expressed. To determine whether the resistance of C20 cells to γTriDAP-induced apoptosis resulted from the absence of Nod1, human Nod1 was stably expressed in MCF-7 C20 cells to produce Nod1-sufficient C20 cells (C20/Nod1). As another control, the parental MCF-7 cell line was transfected with an empty retroviral vector to generate MCF-7 Blasto cells. Cells were treated with γTriDAP in the presence or absence of cycloheximide (CHX) and cell death was then determined by propidium iodide staining and flow cytometry.

[3] = system: MCF-7 and MCF-7 C20 cells; assay: Sensitivity to apoptotic stimuli, parental MCF-7 versus MCF-7 C20 cells; format: cell-based, human; conditions: C20 compared with parental cells
Excerpt: FIG. 1A-C illustrates Nod1 involvement in TNF-induced apoptosis. FIG. 1A provides a schematic diagram of the mutated gene that gave rise to a TNFα-resistant phenotype, and was later identified as a Nod1 mutant bearing a blasticidine (blast) gene insertion. The cell line bearing this Nod1 mutation is the MCF7-C20 cell line. The insertion from the pDisrup retroviral construct was mapped to the Nod1 gene. The junction of blasticidine fused with the Nod1 gene occurred at the 3′ end of the Nod1 gene between leucine-rich region 8 (LRR8) and leucine-rich region 9 (LRR9). […] Cell extracts from MCF-7 parental (called “wt”) and MCF-7 C20 cells were prepared and either immunoprecipitated with a monoclonal anti-NOD1 antibody (upper panel) or directly loaded onto an SDS-PAGE gel (lower panel), then transferred to PVDF membranes. Blots were analyzed by immunoblotting using the same monoclonal anti-NOD1 antibody. […] MCF-7 and MCF-7 C20 cells were treated with increasing concentrations of TNF (0-40 ng/ml) for 20 h. Cell viability was determined by propidium iodide (PI) exclusion assay and flow cytometry.
as §1

MCF-7 cells = assay: Propidium iodide exclusion cell death assay, wild-type (parental/Blasto) MCF-7 cells; format: cell-based, human; conditions: wild type cells, agent alone
Experimental: as §1, §3

17β-estradiol [estrogen]
effect upon apoptosis (MCF-7 C20 cells): little or no effect
effect on γTriDAP-induced apoptosis (MCF-7 C20/Nod1 cells; C20/Nod1 and Blasto cells, charcoal-treated serum, increasing estrogen): apoptosis increased in a dose-dependent manner
proliferative response to added estrogen ([1]; MCF-C20 and MCF-7 RIP2ΔCARD cells): strong proliferative response
proliferative response to added estrogen ([1]; parental and MCF-7 C20/Nod1 cells): neither the parental nor MCF-7 C20/Nod1 cell lines were stimulated to proliferate
tumor growth ([2]; mice injected with MCF-7 Blasto cells, estrogen pellets): tumors grew
tumor growth ([2]; mice injected with MCF-7 C20 cells, estrogen pellets): grew even larger
tumor growth ([2]; mice that received MCF-7 C20/Nod1, estrogen pellets): did not grow tumors

COC(=O)CC(NC(=O)OC(C)(C)C)C(=O)CF [Boc-D-FMK]
effect on γTriDAP-induced cell death (MCF-7 Nod1 cells): abrogated

CC[C@@]1(O)C(=O)OCc2c1cc1n(c2=O)Cc2cc3ccccc3nc2-1 [camptothecin]
sensitivity of MCF-7 C20 cells versus parental MCF-7 cells to induced cell death [3]: equally sensitive

C[C@@H]1C[C@@H]([C@H](O)CC2CC(=O)NC(=O)C2)C(=O)[C@@H](C)C1 [cycloheximide]
cell death / apoptosis (MCF-7 cells): No cell death

COc1cccc2c1C(=O)c1c(O)c3c(c(O)c1C2=O)C[C@@](O)(C(=O)CO)C[C@@H]3O[C@H]1C[C@H](N)[C@H](O)[C@H](C)O1 [doxirubicin]
sensitivity of MCF-7 C20 cells versus parental MCF-7 cells to induced cell death [3]: equally sensitive

CC/C(=C(\c1ccccc1)c1ccc(OCCN(C)C)cc1)c1ccccc1 [tamoxifen]
effect on γTriDAP-induced cell death (MCF-7 C20/Nod1 cells; MCF-7 cell lines treated prior to γTriDAP/CHX (FIG. 12B)): partially blocked
effect on estrogen-induced proliferation ([1]; MCF-7 C20 cells (data not shown)): blocked

IETD
effect on γTriDAP-induced apoptosis (MCF-7 Nod1 cells): marked inhibitory effects

TNFα
sensitivity of MCF-7 C20 cells versus parental MCF-7 cells to induced cell death [3]: significantly more resistant

z-VAD-FMK
effect on γTriDAP-induced cell death (MCF-7 Nod1 cells): abrogated
effect on γTriDAP-induced apoptosis (MCF-7 Nod1 cells): blocked γTriDAP-induced apoptosis nearly completely

— patent US20090028795A1, “NOD1 as an Anti-Tumor Agent” (priority 2005, published 2009)
